For 35 molecules, Results results are on record in patent US20240402196A1 (Exact Sciences Corporation, priority 2018, published 2024).

Read-outs that look alike come from different tables or passages of the source.

This experiment addresses hemoglobin in stool samples (Homo sapiens, UniProt P68871+P69905). Briefly: Accelerated shipping simulation (35C 16 hour challenge), hemoglobin % recovery by ELISA.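 Note: stool hemoglobin measured by ELISA before and after thermal-cycler shipping stress, stability given as percent of pre-stress hemoglobin recovered afterwards.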 More on the design: from tissue; host or cells: stool samples.

hemoglobin in stool samples, sequence (P69905 2-142 limits assumed): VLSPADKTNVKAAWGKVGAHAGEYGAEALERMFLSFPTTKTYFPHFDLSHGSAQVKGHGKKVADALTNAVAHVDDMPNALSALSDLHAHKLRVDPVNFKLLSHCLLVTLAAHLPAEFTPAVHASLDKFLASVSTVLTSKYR
hemoglobin in stool samples, sequence (P68871 2-147 limits assumed): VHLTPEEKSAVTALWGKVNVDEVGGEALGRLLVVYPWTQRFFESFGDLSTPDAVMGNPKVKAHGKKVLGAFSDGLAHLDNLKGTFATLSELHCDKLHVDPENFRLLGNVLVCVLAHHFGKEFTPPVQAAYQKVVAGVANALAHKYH

Take `O=C(O)CC(NCCNC(CC(=O)O)C(=O)O)C(=O)O` (stereo not shown): the Results result reads like this: (additive concentration 10 uM) “No Improvement”; (additive concentration 100 uM) “No Improvement”; (additive concentration 1 mM) “No Improvement”; (additive concentration 10 mM) “No Improvement”.

Regarding `O=C([O-])CC[C@@H](C(=O)[O-])N(CC(=O)[O-])CC(=O)[O-].[Na+].[Na+].[Na+].[Na+]`, the Results result by setting is: (Additive Concentration 0.1 uM) “No Improvement”; (Additive Concentration 1 uM) “No Improvement”; (additive concentration 5 uM) “No Improvement”; (additive concentration 0.01 mM) “No Improvement”; (additive concentration 0.1 mM) “No Improvement”; (additive concentration 1 mM) “No Improvement”. Further, the Results result (additive concentration 10 mM) is “No Improvement”.

In the case of `CC(C(=O)[O-])N(CC(=O)[O-])CC(=O)[O-].O.[Na+].[Na+].[Na+]` (stereo not shown), the Results entry runs as follows: (additive concentration 0.1 mM) “No Improvement”; (additive concentration 1 mM) “No Improvement”; (additive concentration 10 mM) “No Improvement”.

On to `O=C(O)CCCCC1CCSS1` (racemic) [(±)-α-Lipoic acid], for which the Results result (additive concentration […]) is listed as “No Improvement”.

As for `O[C@H](CS)[C@H](O)CS` (racemic) [Dithiothreitol], the Results entry by setting is: (Additive Concentration 1 uM) “No Improvement”; (additive concentration 10 uM) “No Improvement”; (additive concentration 0.1 mM) “No Improvement”; (additive concentration 1 mM) “No Improvement”.

As to `C=CCn1cc[n+](C)c1.[Cl-]` [1-Allyl-3-methylimidazolium Chloride], the Results result by setting is: (additive concentration 0.01 mM) “No Improvement”; (additive concentration 0.1 mM) “No Improvement”; (additive concentration 1 mM) “No Improvement”.

As to `CCCCn1cc[n+](C)c1.[Cl-]` [1-Butyl-3-methylimidazoium Chloride], the Results entry is “No Improvement” (additive concentration 0.01 mM), “No Improvement” (additive concentration 0.1 mM) and “No Improvement” (additive concentration 1 mM).

Take `O.O=c1cc(-c2ccccc2)oc2c(O)c(O)ccc12` [7,8 dihydroxyflavone hydrate]: the Results entry is “No Improvement” (additive concentration 0.01 mM), “No improvement” (additive concentration 0.1 mM) and “No Improvement” (additive concentration 1 mM).

With `O=P(O)(O)CN(CP(=O)(O)O)CP(=O)(O)O` [ATMP], the Results entry reads like this: (additive concentration 0.02 mM) “No Improvement”; (additive concentration 0.2 mM) “No Improvement”; (additive concentration 2 mM) “No Improvement”.

As to `C=CC1=C(C)/C(=C/C2=NC(=C\c3[nH]c(/C=C4\NC(=O)C(C)=C4C=C)c(C)c3CCC(=O)O)/C(CCC(=O)O)=C2C)NC1=O` [Biliverdin], the Results entry by setting is: (additive concentration 0.00003%) “No Improvement”; (additive concentration 0.00030%) “No Improvement”; (additive concentration 0.00300%) “No Improvement”; (additive concentration 0.03000%) “No Improvement”.

For `O=C(/C=C/C(=O)Oc1c(Br)cc(Br)cc1C(=O)O)Oc1c(Br)cc(Br)cc1C(=O)O` [Bis(3,5-dibromosalilcyl)fumarate], the Results entry is, setting by setting: (additive concentration 5 uM) “No Improvement”; (additive concentration 10 uM) “No Improvement”; (additive concentration 100 uM) “No Improvement”.

In the case of `N[C@@H](CS)C(=O)O` [Cysteine], the Results result was “No Improvement” (Additive Concentration 0.1 uM); “No Improvement” (Additive Concentration 1 uM); “No Improvement” (additive concentration 5 uM); “No Improvement” (additive concentration 0.01 mM); “No Improvement” (additive concentration 0.1 mM); “No Improvement” (additive concentration 1 mM). Further, the Results entry (additive concentration 10 mM) is “No Improvement”.

Regarding `O=c1c(-c2ccc(O)cc2)coc2cc(O)ccc12` [Daidzein], the Results result (additive concentration 0.01 mM) is on record as “No Improvement”, the Results entry (additive concentration 0.1 mM) was “No Improvement” and the Results result (additive concentration 1 mM) is recorded as “No Improvement”.

For `O=C(O)[C@@H](COP(=O)(O)O)OP(=O)(O)O` [Diphosphoglycerate (DPG)], the Results entry runs as follows: (additive concentration 0.0005 mM) “No Improvement”; (additive concentration 0.5 uM) “No Improvement”; (additive concentration 0.002 mM) “No Improvement”; (additive concentration 5 uM) “No Improvement”; (additive concentration 50 uM) “No Improvement”; (additive concentration 1 mM) “No Improvement”.

In the case of `O=C([O-])CN(CCN(CC(=O)[O-])CC(=O)O)CC(=O)O.[Na+].[Na+]` [EDTA: Disodium Salt], the Results result reads like this: (additive concentration 5 mM) “No Improvement”; (additive concentration 10 mM) “No Improvement”; (additive concentration 30 mM) “No Improvement”.

For the molecule `CC1=NCC[C@@H](C(=O)O)N1` [Ectoine], the Results result is, setting by setting: (additive concentration 0.718 mM) “No Improvement”; (additive concentration 5 mM) “No Improvement”.

As to `OC[C@H]1OC(O)[C@H](O)[C@@H](O)[C@@H]1O` (stereo partly shown) [Glucose], the Results entry runs as follows: (additive concentration 72 uM) “No Improvement”; (additive concentration 720 uM) “No Improvement”.

Consider `N[C@@H](CCC(=O)N[C@@H](CS)C(=O)NCC(=O)O)C(=O)O` [Glutathione], for which the Results entry (additive concentration 10 uM) is “No Improvement”, the Results result (additive concentration 100 uM) is “No Improvement”, the Results result (additive concentration 1 mM) is on record as “No Improvement” and the Results result (additive concentration 3 mM) is reported as “No Improvement”.

Turning to `NCC(=O)O` [Glycine (no sample)], the Results entry is “No improvement”.

For `C=CC1=C(C)c2cc3[n-]c(cc4[n-]c(cc5nc(cc1n2)C(C)=C5C=C)c(C)c4CCC(=O)O)c(CCC(=O)O)c3C.O.[Fe+2]` [Hematin], the Results entry (additive concentration 6 uM) is on record as “Improvement in % Hb”.

As to `C=CC1=C(C)c2cc3[n-]c(cc4[n-]c(cc5nc(cc1n2)C(C)=C5C=C)c(C)c4CCC(=O)O)c(CCC(=O)O)c3C.[Cl-].[Fe+3]` [Hemin (DMSO)], for the setting “additive concentration 0.0003%”, the Results result was “Improvement in % Hb”.

On to `C=CC1=C(C)c2cc3[n-]c(cc4nc(cc5[n-]c(cc1n2)c(C)c5C=C)C(C)=C4CCC(=O)O)c(CCC(=O)O)c3C.[Cl-].[Fe+3]` [Hemin (H2O:NaOH)], for which the Results result is reported as “Improvement in % Hb” (additive concentration 0.00005%); “Improvement in % Hb” (additive concentration 0.00005%, pH 6.5); “Improvement in % Hb” (additive concentration 0.00009%); “Improvement in % Hb” (additive concentration 0.00009%, pH 6.5); “Improvement in % Hb” (additive concentration 0.0003%); “Improvement in % Hb” (additive concentration 0.003%). Moreover, the Results result reads like this: (additive concentration 0.003%, pH 6.5) “Improvement in % Hb”; (additive concentration […]) “Improvement in % Hb”; (additive concentration […], pH 6.5) “Improvement in % Hb”.

Turning to `C1N2CN3CN1CN(C2)C3` [Hexamethylenetetramine], the Results result (additive concentration 14 mM) is on record as “No Improvement”, the Results entry (additive concentration 140 mM) was “No Improvement” and the Results result (additive concentration 500 mM) was “No Improvement”.

Regarding `N[C@@H](Cc1c[nH]cn1)C(=O)O` [Histidine], the Results entry (additive concentration 0.0028 mM) is reported as “No Improvement”, the Results result (additive concentration 0.0228 mM) is given as “No Improvement” and the Results entry (additive concentration 0.228 mM) is on record as “No Improvement”.

In the case of `NO` [Hydroxylamine], the Results result is, setting by setting: (additive concentration 25 uM) “No Improvement”; (additive concentration 0.5 mM) “No Improvement”.

Turning to `c1c[nH]cn1` [Imidazole], the Results entry is given as “No Improvement” (additive concentration 25 uM) and “No Improvement” (additive concentration 0.5 mM).

In the case of `O=C(O)CC(NC(CC(=O)O)C(=O)O)C(=O)O` (stereo not shown) [Iminodisuccinic acid], the Results entry (additive concentration 10 mM) is “No Improvement”.

Take `NCCCC[C@H](N)C(=O)O` [Lysine]: the Results result runs as follows: (additive concentration 0.0687 mM) “No Improvement”; (additive concentration 0.687 mM) “No Improvement”; (additive concentration 6.87 mM) “No Improvement”.

As to `O=S(=O)([O-])CS(=O)(=O)[O-].[K+].[K+]` [Methanedisulfonic acid dipotassium salt], the Results result (additive concentration 10.69 mM) is “No Improvement”.

Consider `O=S(=O)([O-])CCCS(=O)(=O)[O-].[Na+].[Na+]` [Propanedisulfonic acid disodium salt], for which the Results result was “No Improvement” (additive concentration 0.4 mM), “No Improvement” (additive concentration 4 mM) and “No Improvement” (additive concentration 40 mM).

Consider `CC(O)CO` (stereo not shown) [Propylene Glycol], for which the Results entry is “No Improvement” (Additive Concentration 0.10%), “No Improvement” (Additive Concentration 0.50%) and “No Improvement” (Additive Concentration 1%).

Consider `C=CC1=C(C)c2cc3[n-]c(cc4nc(cc5[n-]c(cc1n2)c(C)c5C=C)C(C)=C4CCC(=O)O)c(CCC(=O)O)c3C.[Cl-].[Cr+3]` [Protoporphyrin IX Chromium (Vendor 1)], for which the Results entry is “Improvement in % Hb” (additive concentration 1.25 uM) and “Improvement in % Hb” (additive concentration 5 uM).

As to `C=CC1=C(C)c2cc3[n-]c(cc4nc(cc5[n-]c(cc1n2)c(C)c5C=C)C(C)=C4CCC(=O)O)c(CCC(=O)O)c3C.[Cl-].[Cr+3]` [Protoporphyrin IX Chromium (Vendor 2)], the Results result by setting is: (additive concentration 1.25 uM) “Improvement in % Hb”; (additive concentration 5 uM) “Improvement in % Hb”.

Regarding `C=CC1=C(C)c2cc3[n-]c(cc4nc(cc5[n-]c(cc1n2)c(C)c5C=C)C(C)=C4CCC(=O)O)c(CCC(=O)O)c3C.[Cl-].[Co+3]` [Protoporphyrin IX Cobalt (Vendor 1)], the Results result runs as follows: (additive concentration 1.25 uM) “Improvement in % Hb”; (additive concentration 5 uM) “Improvement in % Hb”.

Take `C=CC1=C(C)c2cc3[n-]c(cc4nc(cc5[n-]c(cc1n2)c(C)c5C=C)C(C)=C4CCC(=O)O)c(CCC(=O)O)c3C.[Cl-].[Co+3]` [Protoporphyrin IX Cobalt (Vendor 2)]: the Results entry is on record as “Improvement in % Hb” (additive concentration 1.25 uM) and “Improvement in % Hb” (additive concentration 5 uM).
